In one data set the target is dopamine D2-receptors (Rattus norvegicus, UniProt P61169). The data set can be described thus: affinity for dopamine D2-receptors by displacement experiments with [3H]-spiperone (rat striatum membranes). Format: binding. To be noted: for Ki: [3H]-spiperone, high-affinity form of the dopamine receptor; for α2-IC50 / D2-Ki: relative affinity for dopamine-D2 receptors compared with α2-adrenoceptors, the higher, the higher the D2/α2 selectivity. The protocol: 1Determining the affinity for dopamine D2-receptors by displacement experiments with [^3 H]-spiperone (Modified Method of W. Billard et al., Life Sci. 35, 1885 (1984) and D. J. de Vries and P. M. Beart, Eur. J. Pharmacol. 109, 417 (1985))
Male rats (of the Chbb:Thom strain weighing about 200 g) were killed by a blow to the back of the neck. The brains were removed and dissected on ice. The striata were dissected out, weighed and homogenised in 25 volumes of tris buffer (50 mM tris-HCl, 1 mM EDTA, 5 mM MgCl2 and 1 mM ascorbic acid) for 30 seconds in an Ultra-Turrax at maximum speed, followed by 10 cycles in a Potter-Elvehjem at 1400 rpm. The pellet obtained after centrifuging at 50,000×g at 4° C. for 15 minutes was again taken up in 25 ml of tris buffer and centrifuged under the above conditions. The supernatant was discarded and the pellet obtained was incubated in 25 ml of tris buffer at 37° C. for 30 minutes and then centrifuged again at 50,000×g at 4° C. for 15 minutes. Finally, the pellet obtained was mixed with tris buffer to obtain a homogenate dilution of 1:500 (based on the weight of the striata).
1 ml aliquots of the membrane preparation were incubated with 1 ml of a solution of 0.25 nM [^3 H]-spiperone ([…], Messrs. DuPont NEN) and at increasing concentrations of the test substance (10^-11 to 10^-4 M) at ambient temperature for one hour. Incubation was ended by the addition of 5 ml of ice cold tris buffer and filtration using Whatman GF/B filters. The filters were washed twice, each time with 5 ml of ice cold buffer. The radioactivity of the filters was determined by liquid scintillation measurement in Instagel^(R) (Messrs. Canberra Packard). Non-specific binding was determined in the presence of 10^-5 M haloperidol (Sigma Chemical Co.).
Displacement curves were obtained from the data using the TOPFIT programming package (G. Heinzel in "Pharmacokinetics During Drug Development: Data Analysis and Evaluation Techniques", G. Bozler and J. M. van Rossum Eds., G. Fischer Verlag, Stuttgart 1982, 207).

The next data set concerns the target T1, alpha-2 receptors (Rattus norvegicus, UniProt P22909).
T1 sequence (P22909 1-465): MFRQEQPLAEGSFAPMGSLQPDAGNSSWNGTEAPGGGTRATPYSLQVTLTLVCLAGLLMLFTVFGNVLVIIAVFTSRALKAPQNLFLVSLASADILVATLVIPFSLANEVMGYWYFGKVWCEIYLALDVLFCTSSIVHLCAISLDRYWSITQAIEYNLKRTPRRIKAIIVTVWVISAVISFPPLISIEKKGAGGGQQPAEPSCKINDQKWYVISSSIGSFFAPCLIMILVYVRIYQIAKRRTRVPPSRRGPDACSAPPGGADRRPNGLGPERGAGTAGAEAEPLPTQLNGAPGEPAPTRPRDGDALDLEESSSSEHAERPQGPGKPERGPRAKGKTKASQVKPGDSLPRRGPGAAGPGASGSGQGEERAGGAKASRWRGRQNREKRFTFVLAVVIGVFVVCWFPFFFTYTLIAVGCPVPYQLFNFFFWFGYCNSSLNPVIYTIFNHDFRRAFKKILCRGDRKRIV
The data set can be described thus: affinity for alpha-2 receptors by displacement experiments with [3H]-clonidine (rat cortex membranes). Format: binding. The conditions noted are these: read-out: α2-IC50.

The subject of a further data set is MPTP monkeys. The data set can be described thus: post-synaptic dopaminergic activity in MPTP monkeys. Format: in vivo, rhesus monkey. The conditions noted are these: for minimal effective dose: Primates, in Macaca mulatta, im, rhesus monkeys, i.m., read-out: minimum dose (MED) required to alleviate the Parkinson's symptoms; for effect on MPTP-induced symptoms: MPTP-treated rhesus monkeys. From the text: 6. Determining the post-synaptic dopaminergic activity in MPTP monkeys (Modified Method of R. S. Burns et al., Proc. Natl. Acad. Sci. 80. 4546 (1983))
The neurotoxin 1-methyl-4-phenyl-1,2,3,6- tetrahydro-pyridine (MPTP) produces in humans and monkeys an irreversible syndrome which in its clinical, pathological, biochemical and pharmacological appearance is very similar to idiopathic Parkinson's disease (Markey et al., Nature 311, 464 (1984)). The reason for this similarity is that MPTP selectively destroys those dopaminergic nerve cells in the substantia nigra of the brain which are also lost by degenerative processes in Parkinson's disease. There is even some discussion that MPTP or an MPTP-like substance might be formed in the body and trigger Parkinson's disease (S. H. Snyder, Nature 311, 514 (1984)). Possibly because of the specific MPTP metabolism, the clinical formation of the MPTP-induced Parkinson syndrome has hitherto been detected only in humans and monkeys. The MPTP model produced in the rhesus monkey is therefore exceptionally suitable for testing the activity of post-synaptically acting dopamine agonists. For this purpose, rhesus monkeys were given MPTP in overall doses of up to about 6 mg/kg of body weight, until the following symptoms appeared: The animals were akinetic and unable to take water and food.
It is clear that with the compounds according to the invention there is no sedative effect or ataxia at a dosage which is several times the MED, which can be put down to the absence of a corresponding activity mediated by the α2- receptors.

Here are results for 19 compounds from patent US5068325A, “4,5,7,8-tetrahydro-6H-thiazolo[5,4-d]azepines, their preparation and their use as pharmaceutical compositions” (priority 1988, dated 1991).

Sequence of dopamine D2-receptors (P61169 whole entry): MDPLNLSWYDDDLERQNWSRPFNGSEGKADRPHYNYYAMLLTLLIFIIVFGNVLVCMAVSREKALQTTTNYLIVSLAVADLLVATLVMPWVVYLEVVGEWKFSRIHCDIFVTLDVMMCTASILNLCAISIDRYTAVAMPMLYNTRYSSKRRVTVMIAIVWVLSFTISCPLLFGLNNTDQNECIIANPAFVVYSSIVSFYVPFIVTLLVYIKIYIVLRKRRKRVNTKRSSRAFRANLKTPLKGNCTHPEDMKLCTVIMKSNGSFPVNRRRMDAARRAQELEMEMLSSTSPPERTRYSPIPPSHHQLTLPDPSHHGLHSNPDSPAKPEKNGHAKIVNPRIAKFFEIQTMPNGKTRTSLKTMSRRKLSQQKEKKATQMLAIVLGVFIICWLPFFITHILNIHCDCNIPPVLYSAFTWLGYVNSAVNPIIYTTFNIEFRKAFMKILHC
Method for alpha-2 receptors: Determination of the affinity for alpha-2 receptors by displacement experiments with [^3 H] clonidine (Modified Method of B. Jarrott, W. J. Louis and R. J. Summers, Biochem. Pharmacol. 27, 141 (1979))
A male rat (Chbb:Thom strain weighing about 200 g) was killed by a blow to the back of the neck. The brain was removed and the cortex dissected out, weighed and homogenised in 25 volumes of tris buffer (50 mM tris- HCl, pH 7.50) for 30 seconds in an Ultra-Turrax at maximum speed, followed by 10° Cycles in a Potter- Elvehjem at 1400 rpm. The homogenised material was combined with tris buffer to obtain a homogenate dilution of 1:50 (based on the weight of the cortex).
1 ml aliquots of the membrane preparation were incubated for three hours at ambient temperature with 1 ml of a solution of 1 nM of [^3 H]-clonidine (2.2 TBq/mmol, Messrs. DuPont NEN) and with increasing concentrations of the test substance (10^-11 to 10^-4 M). Incubation was ended by the addition of 5 ml of ice-cold tris buffer and filtration through Whatman GF/B filters. The filters were washed twice, each time with 5 ml of ice cold buffer. The radioactivity of the filters was determined by liquid scintillation measurement in Instagel(R) (Messrs. Canberra Packard). The non-specific binding was determined in the presence of 10^-5 M of oxymetazoline (Sigma Chemical Co.).

As usually defined, the Ki is the dissociation constant of the complex between target and ligand, obtained from inhibition or displacement. A low value points to higher affinity. The IC50 is the point on the concentration scale where inhibition reaches its midpoint. `CC(C)COc1ccc(C=CCN2CCc3nc(N)sc3CC2)cc1` [Example 8n, 2-Amino-6-(3-(4-isobutoxy-phenyl)allyl)-4,5,7,8-tetrahydro-6H-thiazolo[5,4-d]azepine]: on dopamine D2-receptors, the affinity corresponds to a Ki of 0.015 µM and the “α2-IC50 / D2-Ki” value is given as 133. For the same compound, the concentration for half-maximal inhibition (IC50) on alpha-2 receptors is 2 µM.

As to `Nc1nc2c(s1)CCN(CC=Cc1cccc(Cl)n1)CC2` [Example 11, 2-Amino-6-(3-(6-chloro-2-pyridyl)allyl)-4,5,7,8-tetrahydro-6H-thiazolo[5,4-d]azepine], on dopamine D2-receptors, the inhibition constant (Ki) is 0.0032 µM and the “α2-IC50 / D2-Ki” value came to 256. On alpha-2 receptors, the IC50 is 0.82 µM.

As for `COc1ccc(OC)c(C=CCN2CCc3nc(N)sc3CC2)c1` [Example 4p, 2-Amino-6-(3-(2,5-dimethoxy-phenyl)allyl)-4,5,7,8-tetrahydro-6H-thiazolo[5,4-d]azepine], on dopamine D2-receptors, the affinity, expressed as Ki, was 0.00089 µM and the “α2-IC50 / D2-Ki” value amounted to 100. Also, the IC50 on alpha-2 receptors is 0.089 µM. Further, in the data set with MPTP monkeys (0.05 mg/kg i.m. (MED)), the Duration of activity is recorded as ~ 2 hours and the Side effects result is given as “none”. Also, in the data set on MPTP monkeys (0.30 mg/kg i.m.), the Duration of activity lay in the range of 2.0 to 5 h and the Side effects entry is on record as “none”. In addition, in the data set with MPTP monkeys, the minimal effective dose amounted to 0.05 mg/kg.

Turning to `Cc1cccnc1C=CCN1CCc2nc(N)sc2CC1` [Example 11i, 2-Amino-6-(3-(3-methyl-2-pyridyl)allyl)-4,5,7,8-tetrahydro-6H-thiazolo[5,4-d]azepine], at dopamine D2-receptors, the Ki was found to be 0.0026 µM and the “α2-IC50 / D2-Ki” value was 576. In addition, the IC50 on alpha-2 receptors stood at 1.5 µM. In the data set with MPTP monkeys (0.05 mg/kg i.m. (MED)), the Duration of activity was ~ 1.5 hours and the Side effects entry is reported as “none”. In the data set with MPTP monkeys (0.20 mg/kg i.m.), the Duration of activity was 2.0 to 5 h and the Side effects result is recorded as “none”. Besides, in the data set with MPTP monkeys, the minimal effective dose worked out at 0.05 mg/kg.

Regarding `Cc1nc(C=CCN2CCc3nc(N)sc3CC2)cs1` [Example 9, 2-Amino-6-(3-(2-methyl-4-thiazolyl)allyl)-4,5,7,8,-tetrahydro-6H-thiazolo[5,4-d]azepine-semihydrate], at dopamine D2-receptors, the inhibition constant (Ki) worked out at 0.0067 µM and the “α2-IC50 / D2-Ki” value worked out at 79. For the same compound, the half-maximal inhibitory concentration (IC50) on alpha-2 receptors amounted to 0.53 µM.

For the compound `Nc1nc2c(s1)CCN(CC=Cc1ccccc1[N+](=O)[O-])CC2` [Example 4g, 2-Amino-6-(3-(2-nitro-phenyl)allyl)-4,5,7,8-tetrahydro-6H-thiazolo[5,4-d]azepine], on dopamine D2-receptors, the affinity, expressed as Ki, was 0.002 µM and the “α2-IC50 / D2-Ki” value is recorded as 120. Also, the IC50 at alpha-2 receptors was 0.24 µM.

As to `Nc1nc2c(s1)CCN(CC(=Cc1ccccc1)c1ccccc1)CC2` [Example 8o], at dopamine D2-receptors, the affinity, expressed as Ki, was 0.014 µM and the “α2-IC50 / D2-Ki” value is reported as 235. On alpha-2 receptors, the IC50 was 3.3 µM.

For `CN1CCc2cccc3c2[C@H]1Cc1ccc(O)c(O)c1-3` [apomorphine, reference compound], the “effect on MPTP-induced symptoms” value in the data set on MPTP monkeys is “temporary cessation of this phenomenon”.

In the case of `Nc1nc2c(s1)CCN(CC=Cc1ccccc1Cl)CC2` [Example 4e, 2-Amino-6-(3-(2-chloro-phenyl)allyl)-4,5,7,8-tetrahydro-6H-thiazolo[5,4-d]azepine], on dopamine D2-receptors, the affinity corresponds to a Ki of 0.003 µM and the “α2-IC50 / D2-Ki” value is 63. The half-inhibitory concentration (IC50) on alpha-2 receptors turned out to be 0.19 µM.

On to `Nc1nc2c(s1)CCN(CC=Cc1ccc(OCc3ccccc3)cc1)CC2` [Example 4z, 2-Amino-6-(3-(4-benzyloxy-phenyl)allyl)-4,5,7,8-tetrahydro-6H-thiazolo[5,4-d]azepine], for which, on dopamine D2-receptors, the Ki came to 0.0084 µM and the “α2-IC50 / D2-Ki” value is given as 452. Also, the IC50 on alpha-2 receptors worked out at 3.8 µM.

With `Nc1nc2c(s1)CCN(CC=Cc1ccccc1O)CC2` [Example 15, 2-Amino-6-(3-(2-hydroxy-phenyl)allyl)-4,5,7,8-tetrahydro-6H-thiazolo[5,4-d]azepine], at dopamine D2-receptors, affinity was put at a Ki of 0.00095 µM and the “α2-IC50 / D2-Ki” value turned out to be 621. On alpha-2 receptors, the IC50 was determined as 0.59 µM.

In the case of `Nc1nc2c(s1)CCN(CC#Cc1ccccn1)CC2` [Example 10, 2-Amino-6-(3-(2-pyridyl)-2-propyn-1-yl)-4,5,7,8-tetrahydro-6H-thiazolo[5,4-d]azepine], on dopamine D2-receptors, the inhibitory constant (Ki) stood at 0.017 µM and the “α2-IC50 / D2-Ki” value is recorded as 882. Moreover, the 50% inhibitory concentration (IC50) at alpha-2 receptors was determined as 15 µM.

As to `COc1cccc(C=CCN2CCc3nc(N)sc3CC2)c1OC` [Example 4o, 2-Amino-6-(3-(2,3-dimethoxy-phenyl)allyl)-4,5,7,8-tetrahydro-6H-thiazolo[5,4-d]azepine], at dopamine D2-receptors, affinity was put at a Ki of 0.0013 µM and the “α2-IC50 / D2-Ki” value was determined as 423. Besides, on alpha-2 receptors, the half-inhibitory concentration (IC50) came out at 0.55 µM.

For `Nc1nc2c(s1)CCN(CC=Cc1ccccc1-c1ccccc1)CC2` [Example 4v, 2-Amino-6-(3-(2-biphenyl)allyl)-4,5,7,8-tetrahydro-6H-thiazolo[5,4-d]azepine], on dopamine D2-receptors, the affinity corresponds to a Ki of 0.008 µM and the “α2-IC50 / D2-Ki” value is recorded as 287. At alpha-2 receptors, the IC50 was 2.3 µM.

Consider `Nc1nc2c(s1)CCN(CC=Cc1ccc([N+](=O)[O-])cc1)CC2` [Example 4i, 2-Amino-6-(3-(4-nitro-phenyl)allyl)-4,5,7,8-tetrahydro-6H-thiazolo[5,4-d]azepine], for which, at dopamine D2-receptors, the inhibition constant Ki came out at 0.013 µM and the “α2-IC50 / D2-Ki” value is reported as 157. The IC50 on alpha-2 receptors was 2.05 µM.

On to `Nc1nc2c(s1)CCN(CC=Cc1ccc(Cl)cc1)CC2` [Example 3a, 2-Amino-6-(3-(4-chloro-phenyl)allyl)-4,5,7,8-tetrahydro-6H-thiazolo[5,4-d]azepine], for which, on dopamine D2-receptors, affinity was put at a Ki of 0.007 µM and the “α2-IC50 / D2-Ki” value is on record as 88. At alpha-2 receptors, the IC50 was found to be 0.62 µM.

As for `N[C@@H](Cc1ccc(O)c(O)c1)C(=O)O` [levodopa, reference compound], the “effect on MPTP-induced symptoms” value in the data set on MPTP monkeys is “temporary cessation of this phenomenon”.

Consider `Nc1nc2c(s1)CCN(CC=Cc1ccccc1N)CC2` [Example 16, 2-Amino-6-(3-(2-amino-phenyl)allyl)-4,5,7,8-tetrahydro-6H-thiazolo[5,4-d]azepine], for which, on dopamine D2-receptors, affinity was put at a Ki of 0.0014 µM and the “α2-IC50 / D2-Ki” value was 285. The IC50 on alpha-2 receptors came out at 0.4 µM.

As for `Cl.Cl.Nc1nc2c(s1)CCN(CCCc1ccccc1)CC2` [Example 3b, 2-Amino-6-(3-phenyl-propyl)-4,5,7,8-tetrahydro-6H-thiazolo[5,4-d]azepine-dihydrochloride], at dopamine D2-receptors, the Ki was 0.024 µM and the “α2-IC50 / D2-Ki” value is 145. Moreover, the concentration for half-maximal inhibition (IC50) on alpha-2 receptors is 0.81 µM.
